18 molecules from patent US9573913B2, “Cathepsin cysteine protease inhibitors” (Merck Sharp & Dohme Corp., priority 2013, dated 2017) can be followed below.

Assay [1] deals with T1, human cathepsin F (Homo sapiens, UniProt Q9UBX1).
T1 sequence (Q9UBX1 271-484): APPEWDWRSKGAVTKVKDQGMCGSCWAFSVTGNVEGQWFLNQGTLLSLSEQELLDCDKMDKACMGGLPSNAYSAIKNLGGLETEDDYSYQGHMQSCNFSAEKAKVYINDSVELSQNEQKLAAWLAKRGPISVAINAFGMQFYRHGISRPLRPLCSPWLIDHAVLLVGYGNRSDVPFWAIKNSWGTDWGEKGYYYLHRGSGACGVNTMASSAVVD
Description: Cathepsin F assay (hCat F). The settings on record: Z-Phe-Arg-AMC substrate, pH 5.5, 15 min preincubation; read-out: hCat F (IP (nM)). The assay is classed as biochemical. As to the method: Cathepsin F assay (hCat F)
(§1) Serial dilutions (1/3) from 500 μM down to 0.025 μM of test compounds were prepared in dimethyl sulfoxide (DMSO). Then 0.5 μL of DMSO from each dilution were added to 18.75 μL of assay buffer (MES, 50 mM (pH 5.5); EDTA, 2.5 mM; DTT, 2.5 mM and 10% DMSO) containing human cathepsin F (10 nM) in assay buffer solution. The assay solutions were mixed for 5-10 seconds on a shaker plate and incubated for 15 minutes at room temperature. Z-Phe-Arg-AMC (8 μM) in 6.25 μL of assay buffer was added to the assay solutions. Hydrolysis of the coumarin leaving group (AMC) was followed by spectrofluorometry (Exλ=360 nm; Emλ=460 nm) for 20 minutes. Percent of inhibition were calculated by fitting experimental values to standard mathematical model for dose response curve.

Assay [2] has as its target human cathepsin K (UniProt P43236). The assay can be described thus: Cathepsin K Assay (hrbCat K). Type of assay: biochemical. The settings on record: Z-Leu-Arg-AMC substrate, pH 5.5, 15 min preincubation; read-out: hrbCat K (IP (nM)). As to the method:
Cathepsin K Assay (hrbCat K)
as §1, with “Then” for “Serial dilutions (1/3) from 500 μM down to 0.025 μM of test compounds were prepared in dimethyl sulfoxide (DMSO). Then”, “K (0.4” for “F (10”, “Z-Leu-Arg-AMC” for “Z-Phe-Arg-AMC”, “30” for “20”

With `N#CC1(NC(=O)[C@@H]2CCCC[C@H]2c2nc(C(O)C(F)(F)F)sc2-c2ccc(N3CCS(=O)(=O)CC3)cc2)CC1` (mixture of isomers) [Example 228, (1R,2R)-N-(1-cyanocyclopropyl)-2-(5-(4-(1,1-dioxidothiomorpho-lino)phenyl)-2-((R and S)-2,2,2-trifluoro-1-hydroxyethyl)thia-zol-4-yl)cyclohexane-carboxamide], the IC50 in assay [1] came out at 5390 nM; in assay [2] it was 5.1 nM.
As for `C[C@@H](C#N)NC(=O)[C@@H]1CCCC[C@H]1c1nc(C(O)C(F)(F)F)sc1-c1ccc(N2CCS(=O)(=O)CC2)cc1` (mixture of isomers) [Example 229, (1R,2R)-N-((S)-1-cyanoethyl)-2-(5-(4-(1,1-dioxidothiomorpho-lino)phenyl)-2-((R and S)-2,2,2-trifluoro-1-hydroxyethyl)thia-zol-4-yl)cyclohexane-carboxamide], the IC50 in assay [1] is 757 nM; in assay [2], 2.6 nM.
The matching figures for `Cc1nc(C2CCCCC2C(=O)NCC#N)c(-c2ccc(N3CCS(=O)(=O)CC3)cc2)s1` (racemic) [Example 245, N-(cyanomethyl)-2-(5-(4-(1,1-dioxidothiomorpho-lino)phenyl)-2-methylthiazol-4-yl)cyclohexane-carboxamide]: 3280 nM and 5.4 nM.
For `Cc1nc(C2CCCCC2C(=O)NCC#N)c(-c2ccc(C(=O)N3CCOCC3)cc2)s1` (racemic) [Example 246, N-(cyanomethyl)-2-(2-methyl-5-(4-(morpholine-4-carbonyl)phenyl)thi-azol-4-yl)cyclohexane-carboxamide], the IC50 in assay [1] was greater than 10000 nM; in assay [2], 38.2 nM.
The corresponding values for `N#CCNC(=O)C1CCCCC1c1nc(-c2ccccc2)sc1-c1ccc(N2CCS(=O)(=O)CC2)cc1` (racemic) [Example 247, N-(cyanomethyl)-2-(5-(4-(1,1-dioxidothiomorpho-lino)phenyl)-2-phenylthiazol-4-yl)cyclohexane-carboxamide] are 229 nM and 2.1 nM.
The corresponding values for `N#CC1(NC(=O)[C@@H]2CC3CC3C[C@H]2c2nc(-c3cncc(F)c3)sc2-c2ccc(N3CCS(=O)(=O)CC3)cc2)CC1` (single isomer, unassigned) [Compound 3, (1S or 1R,3R,4R,6R or 6S)-N-(1-Cyanocyclopropyl)-4-(5-(4-(1,1-dioxidothiomorpholino)phenyl)-2-(5-fluoropyridin-3-yl)thiazol-4-yl)bicyclo[4.1.0]heptane-3-carboxamide] are 225 nM and 0.7 nM.
With `N#CC1(NC(=O)[C@@H]2CC3CC3C[C@H]2c2nc(-c3cncc(F)c3)sc2-c2ccc(N3CCS(=O)(=O)CC3)cc2)CC1` (single isomer, unassigned) [Compound 4, (1R or 1S,3R,4R,6S or 6R)-N-(1-Cyanocyclopropyl)-4-(5-(4-(1,1-dioxidothiomorpholino)phenyl)-2-(5-fluoropyridin-3-yl)thiazol-4-yl)bicyclo[4.1.0]heptane-3-carboxamide], the IC50 in assay [1] was determined as 439 nM; in assay [2], 0.9 nM.
Regarding `N#CC1(NC(=O)[C@@H]2CC3CC3C[C@H]2c2nc(-c3ccc(F)cn3)sc2-c2ccc(N3CCS(=O)(=O)CC3)cc2)CC1` (single isomer, unassigned) [Example 100, (1S or 1R,3R,4R,6R or 6S)-N-(1-cyanocyclopropyl)-4-(5-(4-(1,1-dioxidothiomorpho-lino)phenyl)-2-(5-fluoropyridin-2-yl)thiazol-4-yl)bicyclo[4.1.0] heptane-3-carboxamide], the values for the IC50 in assay [1] and in assay [2] were 632 nM and 1.7 nM, respectively.
For `N#CC1(NC(=O)[C@@H]2CC3CC3C[C@H]2c2nc(-c3ccc(F)cn3)sc2-c2ccc(N3CCS(=O)(=O)CC3)cc2)CC1` (single isomer, unassigned) [Example 105, (1R or 1S,3R,4R,6S or 6R)-N-(1-cyanocyclopropyl)-4-(5-(4-(1,1-dioxidothiomorpho-lino)phenyl)-2-(5-fluoropyridin-2-yl)thiazol-4-yl)bicyclo[4.1.0] heptane-3-carboxamide], the IC50 in assay [1] amounted to 371 nM; in assay [2], 0.8 nM.
The matching figures for `N#CC1(NC(=O)[C@@H]2CC3CC3C[C@H]2c2nc(-c3cncc(Cl)c3)sc2-c2ccc(N3CCS(=O)(=O)CC3)cc2)CC1` (single isomer, unassigned) [Example 109, (1S or R,3R,4R,6R or S)-4-(2-(5-chloropyridin-3-yl)-5-(4-(1,1-dioxidothiomorpho-lino)phenyl)thiazol-4-yl)-N-(1-cyanocyclopropyl) bicyclo[4.1.0]heptane-3-carboxamide]: 258 nM and 0.6 nM.
Turning to `N#CC1(NC(=O)[C@@H]2CC3CC3C[C@H]2c2nc(-c3cncc(F)c3)sc2-c2ccc(N3CCS(=O)(=O)CC3)cc2)CC1` (single isomer, unassigned) [Example 111, (1S or 1R,3R,4R,6R or 6S)-N-(1-cyanocyclopropyl)-4-(5-(4-(1,1-dioxidothiomorpho-lino)phenyl)-2-(5-fluoropyridin-3-yl)thiazol-4-yl)bicyclo[4.1.0] heptane-3-carboxamide], the IC50 in assay [1] was found to be 225 nM; in assay [2], 0.7 nM.
The corresponding values for `N#CC1(NC(=O)[C@@H]2CC3CC3C[C@H]2c2nc(-c3cncc(F)c3)sc2-c2ccc(N3CCS(=O)(=O)CC3)cc2)CC1` (single isomer, unassigned) [Example 112, (1R or 1S,3R,4R,6S or 6R)-N-(1-cyanocyclopropyl)-4-(5-(4-(1,1-dioxidothiomorpho-lino)phenyl)-2-(5-fluoropyridin-3-yl)thiazol-4-yl)bicyclo[4.1.0] heptane-3-carboxamide] are 439 nM and 0.9 nM.
The corresponding values for `N#CC1(NC(=O)[C@@H]2CC3CC3C[C@H]2c2nc(-c3cncc(Cl)c3)sc2-c2ccc(N3CCS(=O)(=O)CC3)cc2)CC1` (single isomer, unassigned) [Example 113] are 482 nM and 0.8 nM.
For `CC(C#N)NC(=O)[C@@H]1C[C@@H](F)CC[C@H]1c1nc(-c2cncc(F)c2)sc1-c1ccc(N2CCS(=O)(=O)CC2)cc1` (single isomer, unassigned) [Example 126, (1R,2R,5S)-N-((S or R)-1-cyanoethyl)-2-(5-(4-(1,1-dioxidothiomorpho-lino)phenyl)-2-(5-fluoropyridin-3-yl)thiazol-4-yl)-5-fluorocyclohexane-carboxamide], the figures for the IC50 in assay [1] and in assay [2] were 1760 nM and 1.7 nM, respectively.
The corresponding values for `CC(C#N)NC(=O)[C@@H]1C[C@@H](F)CC[C@H]1c1nc(-c2cncc(F)c2)sc1-c1ccc(N2CCS(=O)(=O)CC2)cc1` (single isomer, unassigned) [Example 127, (1R,2R,5S)-N-((R or S)-1-cyanoethyl)-2-(5-(4-(1,1-dioxidothiomorpho-lino)phenyl)-2-(5-fluoropyridin-3-yl)thiazol-4-yl)-5-fluorocyclohexane-carboxamide] are no less than 10000 nM and 42.5 nM.
Turning to `N#CC(NC(=O)[C@@H]1CCCC[C@H]1c1nc(-c2ccc(F)cn2)sc1-c1ccc(N2CCS(=O)(=O)CC2)cc1)C1CCOCC1` (single isomer, unassigned) [Example 185, (1R,2R)-N-((R or S)-cyano(tetrahydro-2H-pyran-4-yl)methyl)-2-(5-(4-(1,1-dioxidothiomorpho-lino)phenyl)-2-(5-fluoropyridin-2-yl)thiazol-4-yl)cyclohexane-carboxamide], the IC50 was 695 nM in assay [1] and 1.3 nM in assay [2].
With `N#CC(NC(=O)[C@@H]1CCCC[C@H]1c1nc(-c2ccc(F)cn2)sc1-c1ccc(N2CCS(=O)(=O)CC2)cc1)C1CCOCC1` (single isomer, unassigned) [Example 186, (1R,2R)-N-((S or R)-cyano(tetrahydro-2H-pyran-4-yl)methyl)-2-(5-(4-(1,1-dioxidothiomorpho-lino)phenyl)-2-(5-fluoropyridin-2-yl)thiazol-4-yl)cyclohexane-carboxamide], the values for the IC50 in assay [1] and in assay [2] were no less than 10000 nM and 1900 nM, respectively.
The matching figures for `CC(C)C(C#N)NC(=O)[C@@H]1CCCC[C@H]1c1nc(-c2ccc(F)cn2)sc1-c1ccc(N2CCS(=O)(=O)CC2)cc1` (single isomer, unassigned) [Example 187, (1R,2R)-N-((S or R)-1-cyano-2-methylpropyl)-2-(5-(4-(1,1-dioxidothiomorpho-lino)phenyl)-2-(5-fluoropyridin-2-yl)thiazol-4-yl)cyclohexane-carboxamide]: no less than 10000 nM and 3820 nM.
